Test results: patent publication US9980943B2, “Methods of treating muscular dystrophy” (BOARD OF REGENTS OF THE NEVADA SYSTEM OF HIGHER EDUCATION, …, priority 2013, dated 2018)

Assays:
Type in all cases: cell-based, mouse
[1] = tested on: α7 integrin (LacZ reporter in α7βgal+/− myoblasts); assay: Myoblast α7+/LacZ integrin FDG assay (Burkin assay in myoblasts, 96-well); conditions: α7+/LacZ myoblasts, 96-well
[2] = tested on: α7 integrin (LacZ reporter in α7+/LacZ myotubes); assay: Myotube α7 integrin FDG assay (Burkin assay in myotubes, 96-well); conditions: myotubes
[3] = tested on: β-galactosidase in CMV-LacZ C2C12 myoblasts; assay: CMV-LacZ secondary screen in C2C12 myoblasts (β-Gal stabilizing assay); conditions: CMV-LacZ C2C12 myoblasts
Outline: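 First, C2C12 myoblasts were transfected with a linearized CMV-LACZ vector and clonal lines selected by FDG β-gal assay. Then cells were exposed to compounds at 0.5, 1, 5, 10, 20 and 40 μM in 96-well format, two replicates each, and β-gal measured.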

[4] = tested on: β-galactosidase in CMV-LacZ C2C12 myotubes; assay: CMV-LacZ secondary screen in C2C12 myotubes (β-Gal stabilizing assay); conditions: C2C12 CMV-LacZ myotubes, fold relative to DMSO
Outline: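 A secondary screen identifies compounds that stabilize β-gal independently of the native promoter, using CMV-LacZ C2C12 cells. Curves span 0.5–40 μM at six levels, in duplicate.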

Compound	Burkin Assay in Myoblasts, signal relative to DMSO ([1]; 0.5 uM)	Burkin Assay in Myoblasts, signal relative to DMSO ([1]; 1 uM)	Burkin Assay in Myoblasts, signal relative to DMSO ([1]; 5 uM)	Burkin Assay in Myoblasts, signal relative to DMSO ([1]; 10 uM)	Burkin Assay in Myoblasts, signal relative to DMSO ([1]; 20 uM)	Burkin Assay in Myoblasts, signal relative to DMSO ([1]; 40 uM)	Burkin Assay in Myotubes, α7 integrin LacZ reporter signal relative to DMSO ([2]; 0.5 uM)	Burkin Assay in Myotubes, α7 integrin LacZ reporter signal relative to DMSO ([2]; 1 uM)	Burkin Assay in Myotubes, α7 integrin LacZ reporter signal relative to DMSO ([2]; 5 uM)	Burkin Assay in Myotubes, α7 integrin LacZ reporter signal relative to DMSO ([2]; 10 uM)	Burkin Assay in Myotubes, α7 integrin LacZ reporter signal relative to DMSO ([2]; 20 uM)	Burkin Assay in Myotubes, α7 integrin LacZ reporter signal relative to DMSO ([2]; 40 uM)	CMV-LACZ in Myoblasts (β-galactosidase activity relative to DMSO) ([3]; 0.5 uM)	CMV-LACZ in Myoblasts (β-galactosidase activity relative to DMSO) ([3]; 1 uM)	CMV-LACZ in Myoblasts (β-galactosidase activity relative to DMSO) ([3]; 5 uM)	CMV-LACZ in Myoblasts (β-galactosidase activity relative to DMSO) ([3]; 10 uM)	CMV-LACZ in Myoblasts (β-galactosidase activity relative to DMSO) ([3]; 20 uM)	CMV-LACZ in Myoblasts (β-galactosidase activity relative to DMSO) ([3]; 40 uM)	CMV-LACZ in Myotubes, signal relative to DMSO ([4]; 0.5 uM)	CMV-LACZ in Myotubes, signal relative to DMSO ([4]; 1 uM)	other results
Cl.O=C1C2CCCN2C(=O)N1CCCN1CCN(c2cccc(Br)c2)CC1 (stereo not drawn) [MLS001180929-01]	1.077	1.0555	1.05	1.05	1.102	1.1941	0.899	0.9256	0.9643	1.03	0.8659	1.135	0.8571	0.9288	0.8251	0.8753	0.9811	0.6163	0.8848	0.7876	CMV-LACZ in Myotubes, signal relative to DMSO ([4]; 5 uM): 1.0533; CMV-LACZ in Myotubes, signal relative to DMSO ([4]; 10 uM): 1.0084; CMV-LACZ in Myotubes, signal relative to DMSO ([4]; 20 uM): 1.1347; CMV-LACZ in Myotubes, signal relative to DMSO ([4]; 40 uM): 1.0274
O=c1[nH]c2ccccc2nc1-c1c[nH]c2ccccc12 [MLS001181936-01]	0.8443	0.7562	0.8573	0.8219	0.51	0.3285	0.9197	0.7633	0.9856	1.024	0.5868	0.7387	0.8487	0.9273	0.7292	0.8296	0.7863	0.6130	1.0705	0.9886	CMV-LACZ in Myotubes, signal relative to DMSO ([4]; 5 uM): 0.9246; CMV-LACZ in Myotubes, signal relative to DMSO ([4]; 10 uM): 1.0274; CMV-LACZ in Myotubes, signal relative to DMSO ([4]; 20 uM): 0.9020; CMV-LACZ in Myotubes, signal relative to DMSO ([4]; 40 uM): 1.0280
